In patent publication US10294202B2, “Pyrrolidinones as herbicides” (FMC Corporation, priority 2013, dated 2019):

Tests used:
[1] = system: barnyardgrass; assay: Test F flood (paddy) test; assay type: in vivo, Echinochloa crus-galli; conditions: 21 d, scale 0-100
Text: Three plastic pots (ca. 16-cm diameter) per rate were partially filled with sterilized Tama silt loam soil comprising a 35:50:15 ratio of sand, silt and clay and 2.6% organic matter. Separate plantings for each of the three pots were as follows. Seeds from the U.S. of monochoria (Monochoria vaginalis), sedge, umbrella (small-flower umbrella sedge, Cyperus difformis), bulrush, […] bulrush, Scirpus juncoides), and […] (purple […] coccinea), were planted into one 16-cm pot for each rate. Seeds from the U.S. of flatsedge, rice (rice flatsedge, Cyperus iria), sprangletop, Brdd. (bearded sprangletop, Leptochloa fascicularis), one stand of 9 or 10 water seeded rice seedlings (Rice, W.S. Jap, Oryza sativa cv. 'Japonica-[…]' or Rice, W.S. Ind, 'Indica'), and two stands of 3 or 4 seedlings of rice, transplanted (transplanted rice, Oryza sativa cv. 'Japonica-[…]') were planted into one 16-cm pot for each rate. Seeds from the U.S. of barnyardgrass (Echinochloa crus-galli), […] (common […], Alisma plantago-aquatica), and watergrass, late (late watergrass, Echinochloa oryzicola) were planted into one 16-cm pot for each rate. Plantings were sequential so that crop and weed species were at the 2.0 to 2.5-leaf stage at time of treatment. Potted plants were grown in a greenhouse with day/night temperature settings of 30/27° C., and supplemental balanced lighting was provided to maintain a 16-h photoperiod. Test pots were maintained in the greenhouse until test completion. At time of treatment, test pots were flooded to 3 cm above the soil surface, treated by application of test compounds directly to the paddy water, and then maintained at that water depth for the duration of the test. Effects of treatments on rice and weeds were visually evaluated by comparison to untreated controls after 21 d. Plant response ratings, summarized in Table F, are based on a scale of 0 to 100 where 0 is no effect and 100 is complete control. A dash (-) response means no test result.

[2] = system: radish, wild; assay: Test D pre-/postemergence herbicide test; assay type: in vivo, Raphanus raphanistrum; conditions: Preemergence, scale 0 to 100 (0 no effect, 100 complete control)
Procedure, shortened: (§1)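 Greenhouse pre- and postemergence screen with surfactant-containing non-phytotoxic solvent formulations. Silt loam soil served for preemergence application, and peat/vermiculite medium for postemergence application at 2–18 cm height. Visual 0–100 control ratings versus controls were recorded 7 to 21 days later.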

[3] = system: oilseed rape; assay: Test D pre-/postemergence herbicide test; assay type: in vivo, Brassica napus; conditions: Preemergence, scale 0 to 100 (0 no effect, 100 complete control)
Procedure, shortened: as §1

[4] = system: chickweed; assay: Test D pre-/postemergence herbicide test; assay type: in vivo, Stellaria media; conditions: Preemergence; for Plant response rating, Chickweed: scale 0 to 100 (0 no effect, 100 complete control)
Text: (§2) Seeds of plant species selected from bluegrass (annual bluegrass, Poa annua), blackgrass (Alopecurus myosuroides), canarygrass (littleseed canarygrass, Phalaris minor), chickweed (common chickweed, Stellaria media), galium (catchweed bedstraw, Galium aparine), bromegrass, downy (downy bromegrass, Bromus tectorum), field poppy (Papaver rhoeas), field violet (Viola arvensis), foxtail, green (green foxtail, Setaria viridis), deadnettle (henbit deadnettle, Lamium amplexicaule), ryegrass, Italian (Italian ryegrass, Lolium multiflorum), kochia (Kochia scoparia), lambsquarters (Chenopodium album), oilseed rape (Brassica napus), pigweed (Amaranthus retroflexus), chamomile (scentless chamomile, Matricaria inodora), Russian thistle (Salsola kali), speedwell (bird's-eye speedwell, Veronica persica), barley, spring (spring barley, Hordeum vulgare), wheat, spring (spring wheat, Triticum aestivum), buckwheat, wild (wild buckwheat, Polygonum convolvulus), mustard, wild (wild mustard, Sinapis arvensis), oat, wild (wild oat, Avena fatua), radish, wild (wild radish, Raphanus raphanistrum), […]), barley, winter (winter barley, Hordeum vulgare), and wheat, winter (winter wheat, Triticum aestivum) were planted into a silt loam soil and treated preemergence with test chemicals formulated in a non-phytotoxic solvent mixture which included a surfactant. At the same time, these species were planted in pots containing Redi-Earth® planting medium (Scotts Company, 14111 Scottslawn Road, Marysville, Ohio 43041) comprising spaghnum peat moss, vermiculite, wetting agent and starter nutrients and treated with postemergence applications of the test chemicals formulated in the same manner. Plants ranged in height from 2 to 18 cm (1- to 4-leaf stage). Treated plants and controls were maintained in a controlled growth environment for 7 to 21 days after which time all species were compared to controls and visually evaluated. Plant response ratings, summarized in Table D, are based on a scale of 0 to 100 where 0 is no effect and 100 is complete control. A dash (-) response means no test result.

[5] = system: windgrass; assay: Test D pre-/postemergence herbicide test; assay type: in vivo, Apera spica-venti; conditions: Preemergence, scale 0 to 100 (0 no effect, 100 complete control)
Text: as §2

Question: With `O=C1NCC(c2cccc(C(F)(F)F)c2)C1C(=O)Nc1ccccc1F` (racemic) [Compound 3] as the compound, how does the “Plant response rating, Barnyardgrass” value ([1]; 250 g ai/ha) read?
Answer: Its value is 90.

Question: And the “Plant response rating, Barnyardgrass” value ([1]; 500 g ai/ha)?
Answer: Its value is 90.

Question: Which “Plant response rating, Barnyardgrass” value ([1]; 125 g ai/ha) does the source give for `O=C1NCC(c2cccc(C(F)(F)F)c2)C1C(=O)Nc1ccc(F)cc1F` (racemic) [Compound 207] here?
Answer: The value was 60.

Question: And the “Plant response rating, Barnyardgrass” value ([1]; 250 g ai/ha)?
Answer: The value was 100.

Question: And the “Plant response rating, Barnyardgrass” value ([1]; 500 g ai/ha)?
Answer: Its value is 100.

Question: And the “Plant response rating, Radish, Wild” value ([2]; 31 g ai/ha)?
Answer: Its value is 15.

Question: What about the “Plant response rating, Radish, Wild” value ([2]; 62 g ai/ha) of the same compound?
Answer: The value was 10.

Question: And the “Plant response rating, Radish, Wild” value ([2]; 125 g ai/ha)?
Answer: The value was 15.

Question: What about the “Plant response rating, Radish, Wild” value ([2]; 250 g ai/ha) of the same compound?
Answer: Its value is 15.

Question: What about the “Plant response rating, Oilseed Rape” value ([3]; 31 g ai/ha) of the same compound?
Answer: The value was 0.

Question: And the “Plant response rating, Oilseed Rape” value ([3]; 62 g ai/ha)?
Answer: Its value is 0.

Question: And the “Plant response rating, Oilseed Rape” value ([3]; 125 g ai/ha)?
Answer: The value was 0.

Question: What about the “Plant response rating, Oilseed Rape” value ([3]; 250 g ai/ha) of the same compound?
Answer: The value was 0.

Question: And the “Plant response rating, Chickweed” value ([4]; 31 g ai/ha)?
Answer: Its value is 60.

Question: And the “Plant response rating, Chickweed” value ([4]; 62 g ai/ha)?
Answer: The value was 60.

Question: What about the “Plant response rating, Chickweed” value ([4]; 125 g ai/ha) of the same compound?
Answer: Its value is 70.

Question: And the Plant response rating ([4]; 250 g ai/ha, Chickweed, scale 0 to 100)?
Answer: The Plant response rating was 100.

Question: What about the “Plant response rating, Windgrass” value ([5]; 31 g ai/ha) of the same compound?
Answer: The value was 5.

Question: What about the “Plant response rating, Windgrass” value ([5]; 62 g ai/ha) of the same compound?
Answer: Its value is 20.

Question: And the “Plant response rating, Windgrass” value ([5]; 125 g ai/ha)?
Answer: The value was 20.

Question: And the “Plant response rating, Windgrass” value ([5]; 250 g ai/ha)?
Answer: Its value is 65.

Question: For `O=C1NCC(c2ccc(C(F)(F)F)c(F)c2)C1C(=O)Nc1cccc(F)c1F` (racemic) [Compound 247], which “Plant response rating, Barnyardgrass” value ([1]; 125 g ai/ha) is on record?
Answer: Its value is 60.

Question: What about the “Plant response rating, Barnyardgrass” value ([1]; 250 g ai/ha) of the same compound?
Answer: The value was 65.

Question: What about the “Plant response rating, Barnyardgrass” value ([1]; 500 g ai/ha) of the same compound?
Answer: The value was 70.

Question: What about the “Plant response rating, Barnyardgrass” value ([1]; 1000 g ai/ha) of the same compound?
Answer: The value was 70.

Question: What about the “Plant response rating, Barnyardgrass” value ([1]; 2000 g ai/ha) of the same compound?
Answer: The value was 75.

Question: For `CN1CC(c2ccc(F)cc2)C(C(=O)Nc2cccc(F)c2F)C1=O` (stereo not drawn) [Compound 271], which “Plant response rating, Barnyardgrass” value ([1]; 64 g ai/ha) is on record?
Answer: The value was 55.

Question: What about the “Plant response rating, Barnyardgrass” value ([1]; 125 g ai/ha) of the same compound?
Answer: Its value is 75.

Question: And the “Plant response rating, Barnyardgrass” value ([1]; 250 g ai/ha)?
Answer: Its value is 100.

Question: What about the “Plant response rating, Barnyardgrass” value ([1]; 500 g ai/ha) of the same compound?
Answer: The value was 100.
